Data on five compounds can be found in patent US9512114B2, “Substituted aminopyrimidine compounds and methods of use” (Calitor Sciences, LLC, priority 2013, dated 2016).

A short description of data set [1]: Compound stability in human liver microsomes. The data set is classed as in vitro ADME. The following applies: pH 7.4; for CLint scaled at 5 μM: liver microsomes, in vivo CLint extrapolated from human liver microsome incubation; for half-life at 5 μM: human liver microsomes 0.5 mg protein/mL, compound 5 μM, NADPH 1.0 mM, 37° C., read-out: Human T1/2. The procedure, abridged: (§1)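 Human or rat liver microsomes (0.5 mg protein/mL) incubated with compound (5 μM) and NADPH (1.0 mM) in 100 mM potassium phosphate, pH 7.4, 0.05% DMSO, 37° C, sampled 0–60 min and quenched with cold acetonitrile. Remaining compound quantified by LC/MS/MS as % of time zero; CLint extrapolated.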

Data set [2] is described as follows: Compound stability in rat liver microsomes. The data set is classed as in vitro ADME. The following applies: pH 7.4; for CLint scaled at 5 μM: liver microsomes, in vivo CLint extrapolated from rat liver microsome incubation; for half-life at 5 μM: rat liver microsomes 0.5 mg protein/mL, compound 5 μM, NADPH 1.0 mM, 37° C., read-out: Rat T1/2. Put shortly: as §1

Data set [3] in a line: Pharmacokinetic profiles in rats. It is filed as in vivo, rat. The conditions noted are these: for Cl/F / AUC(0-t) / half-life / Vd: iv dosing 1 mg/kg; for F: oral vs iv (iv 1 mg/kg; p.o. generally 5 or 10 mg/kg); for AUC(0-t) / half-life / Vd: rat, plasma; for Vd: read-out: Vss. Put shortly:
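In rats, dogs and monkeys, IV dose was generally 1 or 2 mg/kg. Oral dose was generally 5 or 10 mg/kg in rats and 10 mg/kg in dogs and monkeys, given as solution, suspension or capsule. Plasma sampled over up to 24 h and analysed by LC/MS/MS.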

Another data set concerns the target PI3K (p110α/p85α) (h) (Homo sapiens (Human), UniProt P42336). The experiment in a line: PI3K (p110α/p85α) (h) non-radioactive HTRF kinase assay. The following applies: performed at Millipore UK Ltd. It is filed as biochemical. The method, then: (§2) The above assay procedure can be used to determine the IC50 for inhibition and/or the inhibition constant, Ki.
PI3K (p110α/p85α) (h) [Non-Radioactive Assay]
(§3) PI3K (p110α/p85α) (h) is incubated in assay buffer containing 10 μM phosphatidylinositol 4,5-bisphosphate and MgATP (concentration as required). The reaction is initiated by the addition of the ATP solution. After incubation for 30 minutes at room temperature, the reaction is stopped by the addition of stop solution containing EDTA and biotinylated phosphatidylinositol-3,4,5-trisphosphate. Finally, detection buffer is added, which contains europium-labelled anti-GST monoclonal antibody, GST-tagged GRP1 PH domain and streptavidin allophycocyanin. The plate is then read in timeresolved fluorescence mode and the homogenous time-resolved fluorescence (HTRF) signal is determined according to the formula HTRF=10000×(Em665 nm/Em620 nm).
(§4) The kinase assays described herein were performed at Millipore UK Ltd, Dundee Technology Park, Dundee DD2 1SW, UK.

The next data set deals with PI3K (p110β/p85α) (h) (Homo sapiens (Human), UniProt P42338). The experiment in a line: PI3K (p110β/p85α) (h) non-radioactive HTRF kinase assay. The data set is classed as biochemical. The conditions noted are these: performed at Millipore UK Ltd. The protocol:
as §2
PI3K (p110β/p85α) (h) [Non-Radioactive Assay]
as §3, with “([…])” for “(p110α/p85α)”, “phosphatidylinositol-4, 5-bisphosphate” for “phosphatidylinositol 4,5-bisphosphate”, “MgATP mix.” for “ATP solution.”, “streptavidin-allophycocyanin.” for “streptavidin allophycocyanin.”
as §4
Background: TR-FRET usually uses a lanthanide donor and a delayed reading to cut background.

Sequence of PI3K (p110β/p85α) (h) (P42338 whole entry): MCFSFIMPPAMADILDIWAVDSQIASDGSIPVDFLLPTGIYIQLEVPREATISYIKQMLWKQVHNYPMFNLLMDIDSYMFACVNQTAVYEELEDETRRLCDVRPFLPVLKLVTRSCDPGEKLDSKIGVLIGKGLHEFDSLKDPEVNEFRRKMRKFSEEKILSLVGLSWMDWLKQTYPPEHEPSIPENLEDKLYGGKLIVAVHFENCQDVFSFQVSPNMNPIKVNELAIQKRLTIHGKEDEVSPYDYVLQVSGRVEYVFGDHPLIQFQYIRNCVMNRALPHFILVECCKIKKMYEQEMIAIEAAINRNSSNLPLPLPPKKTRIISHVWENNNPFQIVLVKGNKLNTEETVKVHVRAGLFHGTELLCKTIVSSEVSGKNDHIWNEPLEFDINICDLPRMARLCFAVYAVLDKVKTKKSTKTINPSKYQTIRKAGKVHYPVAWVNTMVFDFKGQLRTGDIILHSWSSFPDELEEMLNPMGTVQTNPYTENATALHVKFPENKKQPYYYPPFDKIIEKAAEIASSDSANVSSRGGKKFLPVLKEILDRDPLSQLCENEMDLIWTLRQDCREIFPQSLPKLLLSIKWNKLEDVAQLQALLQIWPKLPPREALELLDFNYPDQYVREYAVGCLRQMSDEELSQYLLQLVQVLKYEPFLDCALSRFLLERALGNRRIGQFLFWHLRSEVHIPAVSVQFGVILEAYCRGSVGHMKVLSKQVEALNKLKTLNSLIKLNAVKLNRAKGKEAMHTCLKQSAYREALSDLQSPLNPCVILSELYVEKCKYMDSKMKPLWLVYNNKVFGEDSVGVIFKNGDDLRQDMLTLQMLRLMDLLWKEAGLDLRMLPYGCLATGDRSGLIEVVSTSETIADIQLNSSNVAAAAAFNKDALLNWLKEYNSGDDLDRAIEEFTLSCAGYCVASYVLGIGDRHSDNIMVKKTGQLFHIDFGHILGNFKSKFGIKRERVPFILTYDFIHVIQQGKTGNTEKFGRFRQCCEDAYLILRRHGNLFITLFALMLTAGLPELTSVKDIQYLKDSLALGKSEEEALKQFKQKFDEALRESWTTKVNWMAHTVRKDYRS
Sequence of PI3K (p110β/p85α) (h) (P27986 whole entry partner): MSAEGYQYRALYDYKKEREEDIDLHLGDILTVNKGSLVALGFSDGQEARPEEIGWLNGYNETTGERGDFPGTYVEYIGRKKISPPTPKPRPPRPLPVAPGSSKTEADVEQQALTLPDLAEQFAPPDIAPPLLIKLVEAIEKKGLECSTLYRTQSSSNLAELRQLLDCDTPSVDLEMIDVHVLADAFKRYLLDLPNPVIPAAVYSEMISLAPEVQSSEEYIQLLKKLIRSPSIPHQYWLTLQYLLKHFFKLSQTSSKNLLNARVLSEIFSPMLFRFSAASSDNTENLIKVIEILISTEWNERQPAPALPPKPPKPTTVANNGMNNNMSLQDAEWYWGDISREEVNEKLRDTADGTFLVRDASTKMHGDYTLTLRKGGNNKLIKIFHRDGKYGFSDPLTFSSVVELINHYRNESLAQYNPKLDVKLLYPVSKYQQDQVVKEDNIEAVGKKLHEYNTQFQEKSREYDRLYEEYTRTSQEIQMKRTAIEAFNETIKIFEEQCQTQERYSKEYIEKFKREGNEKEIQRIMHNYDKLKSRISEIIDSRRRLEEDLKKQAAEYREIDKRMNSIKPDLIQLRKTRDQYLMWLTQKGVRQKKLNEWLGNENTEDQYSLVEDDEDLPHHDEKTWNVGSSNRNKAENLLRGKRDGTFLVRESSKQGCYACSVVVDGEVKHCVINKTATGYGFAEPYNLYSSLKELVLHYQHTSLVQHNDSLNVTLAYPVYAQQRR
Sequence of PI3K (p110α/p85α) (h) (P42336 whole entry): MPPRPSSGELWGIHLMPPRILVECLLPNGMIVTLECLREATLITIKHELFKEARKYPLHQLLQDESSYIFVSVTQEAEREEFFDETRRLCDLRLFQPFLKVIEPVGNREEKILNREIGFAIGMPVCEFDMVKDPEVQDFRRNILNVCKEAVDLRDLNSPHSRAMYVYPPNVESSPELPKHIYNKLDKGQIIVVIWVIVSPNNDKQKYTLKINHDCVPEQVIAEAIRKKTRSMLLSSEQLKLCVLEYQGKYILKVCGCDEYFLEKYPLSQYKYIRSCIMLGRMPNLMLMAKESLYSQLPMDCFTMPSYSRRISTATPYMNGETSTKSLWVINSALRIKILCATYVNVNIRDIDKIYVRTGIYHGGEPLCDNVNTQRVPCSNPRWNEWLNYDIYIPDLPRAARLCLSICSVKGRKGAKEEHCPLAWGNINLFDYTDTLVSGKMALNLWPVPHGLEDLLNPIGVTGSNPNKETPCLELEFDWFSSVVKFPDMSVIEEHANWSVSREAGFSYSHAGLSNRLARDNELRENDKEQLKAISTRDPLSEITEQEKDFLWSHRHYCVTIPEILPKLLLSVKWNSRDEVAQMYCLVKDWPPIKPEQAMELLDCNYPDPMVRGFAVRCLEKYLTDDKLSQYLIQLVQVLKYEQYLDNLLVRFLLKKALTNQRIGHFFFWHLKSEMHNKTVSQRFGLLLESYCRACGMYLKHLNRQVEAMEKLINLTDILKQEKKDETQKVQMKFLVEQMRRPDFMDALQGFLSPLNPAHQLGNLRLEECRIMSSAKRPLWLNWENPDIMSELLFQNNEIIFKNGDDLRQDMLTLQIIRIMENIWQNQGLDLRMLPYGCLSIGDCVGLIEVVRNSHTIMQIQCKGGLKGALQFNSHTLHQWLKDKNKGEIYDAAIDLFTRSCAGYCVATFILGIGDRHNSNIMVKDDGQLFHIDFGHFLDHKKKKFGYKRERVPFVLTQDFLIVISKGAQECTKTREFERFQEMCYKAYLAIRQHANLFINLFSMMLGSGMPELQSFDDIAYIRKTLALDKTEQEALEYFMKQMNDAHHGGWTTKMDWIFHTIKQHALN
Sequence of PI3K (p110α/p85α) (h) (P27986 whole entry partner): as the sequence (P27986 whole entry partner) above

Usually CLint scaled stands for the capacity of the preparation to metabolise the compound, expressed as a volume cleared per time. One may read the AUC(0-t) as the area under the concentration-time curve up to a stated or last time point. Lower therefore signals less exposure. For orientation: IC50 means the concentration that inhibits the measured activity by half. Consider `Cc1nnc(-c2c(N)ncnc2N[C@@H](C)c2cc3cccc(Cl)c3c(=O)n2C2CC2)o1` [Ex. 4, (S)-3-(1-((6-amino-5-(5-methyl-1,3,4-oxadiazol-2-yl)pyrimidin-4-yl)amino)ethyl)-8-chloro-2-cyclopropylisoquinolin-1(2H)-one], for which, in data set [1], the intrinsic clearance (CLint scaled) at 5 μM is 85.3 mL/min/kg and the half-life at 5 μM was 20.4 min. For the same compound, in data set [2], the CLint scaled at 5 μM was 102 mL/min/kg and the half-life at 5 μM was 24.4 min. Moreover, in data set [3], the Cl/F was 33.3 mL/min/kg, the F is given as 78.78%, the exposure AUC(0-t) was found to be 498 ng·h/mL and the half-life is 58.8 min. Moreover, the Vd in data set [3] was found to be 2.4 L/kg. Besides, at PI3K (p110α/p85α) (h), the half-maximal inhibitory concentration (IC50) turned out to be 1470 nM. Also, the half-maximal inhibitory concentration (IC50) at PI3K (p110β/p85α) (h) came to 30 nM.
With `Cc1noc(-c2c(N)ncnc2N[C@@H](C)c2cc3cccc(Cl)c3c(=O)n2-c2ccccc2)n1` [Ex. 8, (S)-3-(1-((6-amino-5-(3-methyl-1,2,4-oxadiazol-5-yl)pyrimidin-4-yl)amino)ethyl)-8-chloro-2-phenylisoquinolin-1(2H)-one], in data set [1], the CLint scaled at 5 μM was 196 mL/min/kg and the half-life at 5 μM is 8.88 min. Also, in data set [2], the intrinsic clearance (CLint scaled) at 5 μM is 229 mL/min/kg and the half-life at 5 μM was 10.9 min. In addition, in data set [3], the Cl/F came out at 57.8 mL/min/kg, the F is reported as 93.06%, the AUC(0-t) was determined as 291 ng·h/mL and the half-life was 55.2 min. Besides, the Vd in data set [3] was found to be 1.94 L/kg. In addition, on PI3K (p110α/p85α) (h), the half-maximal inhibitory concentration (IC50) was found to be 276 nM.
For `Cc1nnc(-c2c(N)ncnc2N[C@@H](C)c2cc3cccc(Cl)c3c(=O)n2-c2ccccc2)o1` [Ex. 9, (S)-3-(1-((6-amino-5-(5-methyl-1,3,4-oxadiazol-2-yl)pyrimidin-4-yl)amino)ethyl)-8-chloro-2-phenylisoquinolin-1(2H)-one], in data set [1], the intrinsic clearance (CLint scaled) at 5 μM was 83.7 mL/min/kg and the half-life at 5 μM amounted to 20.8 min. In data set [2], the CLint scaled at 5 μM is 185 mL/min/kg and the half-life at 5 μM worked out at 13.4 min. In data set [3], this compound had a Cl/F of 17.3 mL/min/kg, an F of 66.87%, an AUC(0-t) of 964 ng·h/mL and a half-life of 82.8 min. Also, the Vd in data set [3] turned out to be 1.04 L/kg. For the same compound, the IC50 at PI3K (p110α/p85α) (h) was found to be 2680 nM.
Consider `Cc1nnc(-c2c(N)ncnc2N[C@@H](C)c2cc3cccc(-c4cnn(C)c4)c3c(=O)n2C2CC2)o1` [Ex. 25, (S)-3-(1-((6-amino-5-(5-methyl-1,3,4-oxadiazol-2-yl)pyrimidin-4-yl)amino)ethyl)-2-cyclopropyl-8-(1-methyl-1H-pyrazol-4-yl)isoquinolin-1 (2H)-one], for which, in data set [1], the intrinsic clearance (CLint scaled) at 5 μM is 28.1 mL/min/kg and the half-life at 5 μM worked out at 61.9 min. Further, in data set [2], the CLint scaled at 5 μM was 14.5 mL/min/kg and the half-life at 5 μM worked out at 171 min. For the same compound, in data set [3], the Cl/F was 33.3 mL/min/kg, the F was 81.0%, the AUC(0-t) worked out at 497 ng·h/mL and the half-life is 79.2 min. Besides, the Vd in data set [3] came to 3.31 L/kg. The IC50 at PI3K (p110α/p85α) (h) is 882 nM. At PI3K (p110β/p85α) (h), the IC50 was found to be 900 nM.
Regarding `Cc1noc(-c2c(N)ncnc2N[C@@H](C)c2cc3cccc(-c4cnn(C)c4)c3c(=O)n2C2CC2)n1` [Ex. 26, (S)-3-(1-((6-amino-5-(3-methyl-1,2,4-oxadiazol-5-yl)pyrimidin-4-yl)amino)ethyl)-2-cyclopropyl-8-(1-methyl-1H-pyrazol-4-yl)isoquinolin-1 (2H)-one], in data set [1], the intrinsic metabolic clearance (CLint scaled) at 5 μM is 51.8 mL/min/kg and the half-life at 5 μM was 33.6 min. For the same compound, in data set [2], the CLint scaled at 5 μM was 22.3 mL/min/kg and the half-life at 5 μM amounted to 112 min. Also, in data set [3], the Cl/F is 50.3 mL/min/kg, the F came out at 121.0%, the AUC(0-t) was 337 ng·h/mL and the half-life is 50.4 min. The Vd in data set [3] is 3.14 L/kg. In addition, on PI3K (p110α/p85α) (h), the half-inhibitory concentration (IC50) turned out to be 132 nM. Also, the IC50 on PI3K (p110β/p85α) (h) was 176 nM.
